Our source for the IC50 values is patent publication US20240360157A1, “TYK2 INHIBITORS” (BIOGEN MA INC., priority 2021, published 2024).

Type in all cases: biochemical
For assay [1], the target named is human JAK3 catalytic kinase (JH1) domain (Homo sapiens (Human), UniProt P52333). The assay can be described thus: ADP-Glo Kinase Assay, recombinant JAK3 catalytic kinase (JH1) domain. As to conditions: recombinant JH1 domain 0.3 nM, 4 μM ATP, JAK3-974 peptide, mean, read-out: JAK3 biochem IC50 (nM) Mean. Summed up: (§1)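 Luminescent ADP read-out after residual ATP depletion, 100 min reaction. Kinase domain concentrations were 4 nM (JAK1), 0.2 nM (JAK2), 0.3 nM (JAK3) and 2 nM (TYK2), each with 50 μM peptide. IC50 values came from 4-parameter logistic fits over 11 points, 3-fold steps, top 10 μM or 1 μM.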
human JAK3 catalytic kinase (JH1) domain, sequence (P52333 822-1111): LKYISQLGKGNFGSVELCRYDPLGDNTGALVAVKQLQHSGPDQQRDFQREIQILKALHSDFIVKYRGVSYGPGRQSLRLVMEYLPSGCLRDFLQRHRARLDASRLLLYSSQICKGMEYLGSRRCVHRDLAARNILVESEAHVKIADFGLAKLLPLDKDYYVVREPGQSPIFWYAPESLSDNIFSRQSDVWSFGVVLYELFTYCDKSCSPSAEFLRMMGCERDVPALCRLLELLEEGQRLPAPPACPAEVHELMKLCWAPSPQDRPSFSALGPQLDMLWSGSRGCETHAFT
On the technique in general: ADP-Glo turns the ADP formed in a reaction into a luminescent signal.

Assay [2] concerns the target human JAK2 catalytic kinase (JH1) domain (Homo sapiens (Human), UniProt O60674). The assay can be described thus: ADP-Glo Kinase Assay, recombinant JAK2 catalytic kinase (JH1) domain. The conditions noted are these: recombinant JH1 domain 0.2 nM, 15 μM ATP, JAK3-974 peptide, mean, read-out: JAK2 biochem IC50 (nM) Mean. Summed up:
as §1

Assay [3] addresses human JAK1 catalytic kinase (JH1) domain (Homo sapiens (Human), UniProt P23458). The experiment in a line: ADP-Glo Kinase Assay, recombinant JAK1 catalytic kinase (JH1) domain. As to conditions: recombinant JH1 domain 4 nM, 35 μM ATP, JAK3-342 peptide, mean, read-out: JAK1 biochem IC50 (nM) Mean. Summed up: as §1
Assay [4] deals with human TYK2 catalytic kinase (JH1) domain (Homo sapiens (Human), UniProt P29597). The experiment in a line: ADP-Glo Kinase Assay, recombinant TYK2 catalytic kinase (JH1) domain. The conditions noted are these: recombinant JH1 domain 2 nM, 10 μM ATP, JAK3-974 peptide, mean, read-out: TYK2 biochem IC50 (nM) Mean. In short, it runs like this: as §1
human TYK2 catalytic kinase (JH1) domain, sequence (P29597 897-1176): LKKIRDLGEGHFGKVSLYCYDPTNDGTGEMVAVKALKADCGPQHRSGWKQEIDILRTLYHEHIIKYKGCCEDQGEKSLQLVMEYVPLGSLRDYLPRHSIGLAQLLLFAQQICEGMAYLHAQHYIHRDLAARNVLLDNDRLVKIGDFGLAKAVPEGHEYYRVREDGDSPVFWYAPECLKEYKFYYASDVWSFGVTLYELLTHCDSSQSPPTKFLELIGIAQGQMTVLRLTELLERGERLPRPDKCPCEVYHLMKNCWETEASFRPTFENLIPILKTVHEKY

Each structure is given as a SMILES string. Structures can show the parent of a compound that is named as a salt.

human JAK1 catalytic kinase (JH1) domain, sequence (P23458 875-1153): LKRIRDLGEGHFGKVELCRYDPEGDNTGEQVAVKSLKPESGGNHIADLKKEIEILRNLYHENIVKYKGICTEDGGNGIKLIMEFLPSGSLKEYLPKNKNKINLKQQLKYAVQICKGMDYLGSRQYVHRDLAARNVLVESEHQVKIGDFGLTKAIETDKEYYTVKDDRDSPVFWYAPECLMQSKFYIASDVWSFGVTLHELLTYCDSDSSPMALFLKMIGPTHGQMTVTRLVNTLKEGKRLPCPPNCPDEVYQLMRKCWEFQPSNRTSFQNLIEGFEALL
human JAK2 catalytic kinase (JH1) domain, sequence (O60674 849-1124): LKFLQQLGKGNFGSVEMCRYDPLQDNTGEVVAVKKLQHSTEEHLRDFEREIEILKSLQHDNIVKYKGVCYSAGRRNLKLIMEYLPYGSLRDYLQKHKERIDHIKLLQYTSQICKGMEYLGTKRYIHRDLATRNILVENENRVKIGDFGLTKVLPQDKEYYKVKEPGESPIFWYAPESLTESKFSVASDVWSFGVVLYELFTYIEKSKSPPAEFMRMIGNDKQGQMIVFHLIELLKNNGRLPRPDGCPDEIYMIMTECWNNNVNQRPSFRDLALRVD

With `O=C(C1CC1)N1C2CCC1CN(c1ccnc3[nH]c(-c4cnn(C(F)F)c4)nc13)C2` [Example 214, cyclopropyl(3-(2-(1-(difluoromethyl)-1H-pyrazol-4-yl)-3H-imidazo[4,5-b]pyridin-7-yl)-3,8-diazabicyclo[3.2.1]octan-8-yl)methanone], the IC50 (as a rule, the concentration needed to halve the response being measured) amounted to 346 nM in assay [1], 62 nM in assay [2], 94 nM in assay [3] and 7.6 nM in assay [4].
For the compound `Cn1ccc(-c2cc3c(N4CC5CCC(C4)N5C(=O)[C@@H]4C[C@H]4F)ccnn3c2)cc1=O` [Example 171], the IC50 in assay [1] is 322 nM; in assay [2], 28 nM; in assay [3], 136 nM; in assay [4] it was 1.5 nM.
For `O=S(=O)(C1CC1)N1C2CCC1CN(c1ncnn3cc(-c4cnn(C(F)F)c4)cc13)C2` [Example 188, 4-(8-(cyclopropylsulfonyl)-3,8-diazabicyclo[3.2.1]octan-3-yl)-6-(1-(difluoromethyl)-1H-pyrazol-4-yl)pyrrolo[2,1-f][1,2,4]triazine], the IC50 in assay [1] came out at 9390 nM; in assay [2], 5890 nM; in assay [3] it was 9740 nM; in assay [4], 615 nM.
The like results for `O=C(C1CC1)N1C2CCC1CN(c1ccnn3cc(-c4cnn(C(F)(F)F)c4)cc13)C2` [Example 20, cyclopropyl(3-(6-(1-(trifluoromethyl)-1H-pyrazol-4-yl)pyrrolo[1,2-b]pyridazin-4-yl)-3,8-diazabicyclo[3.2.1]octan-8-yl)methanone] were, in that order, 1860 nM, 532 nM, 356 nM and 30.2 nM.
Take `O=C(C1CC1)N1C2CCC1CN(c1ncnn3cc(-c4cnn([C@H]5CCOC5)c4)cc13)C2` [Example 157, cyclopropyl(3-(6-(1-((S)-tetrahydrofuran-3-yl)-1H-pyrazol-4-yl)pyrrolo[2,1-f][1,2,4]triazin-4-yl)-3,8-diazabicyclo[3.2.1]octan-8-yl)methanone]: the IC50 was found to be 2250 nM in assay [1], 2270 nM in assay [2], 1380 nM in assay [3] and 151 nM in assay [4].
On to `O=C([C@@H]1C[C@H]1F)N1C2CCC1CN(c1ncnn3cc(-c4ccnnc4)cc13)C2` [Example 90, ((1S,2R)-2-fluorocyclopropyl)(3-(6-(pyridazin-4-yl)pyrrolo[2,1-f][1,2,4]triazin-4-yl)-3,8-diazabicyclo[3.2.1]octan-8-yl)methanone], for which the IC50 in assay [1] was found to be 10000 nM; in assay [2], 3060 nM; in assay [3] it was 1120 nM; in assay [4], 124 nM.
For `O=C([C@@H]1C[C@H]1F)N1C2CCC1CN(c1ccnn3cc(-c4ccc(C(F)F)nc4)cc13)C2` [Example 116, (3-(6-(6-(difluoromethyl)pyridin-3-yl)pyrrolo[1,2-b]pyridazin-4-yl)-3,8-diazabicyclo[3.2.1]octan-8-yl)((1S,2R)-2-fluorocyclopropyl)methanone], the IC50 in assay [1] is 847 nM; in assay [2], 41 nM; in assay [3], 44 nM; in assay [4], 2.6 nM.
As for `O=C([C@H]1C[C@@H]1CO)N1C2CCC1CN(c1ncnn3cc(-c4cnn(C(F)F)c4)cc13)C2` (single isomer, unassigned) [Example 39], the IC50 in assay [1] came to 6380 nM; in assay [2] it was 9090 nM; in assay [3] it was 2130 nM; in assay [4], 762 nM.
Turning to `CC(C)C(=O)N1C2CCC1CN(c1ncnn3cc(-c4cnn(C(F)F)c4)cc13)C2` [Example 42, 1-(3-(6-(1-(difluoromethyl)-1H-pyrazol-4-yl)pyrrolo[2,1-f][1,2,4]triazin-4-yl)-3,8-diazabicyclo[3.2.1]octan-8-yl)-2-methylpropan-1-one], the IC50 in assay [1] is 9510 nM; in assay [2], 7960 nM; in assay [3], 5220 nM; in assay [4], 466 nM.
For the compound `O=C([C@@H]1C[C@H]1F)N1C2CCC1CN(c1ccnn3cc(-c4ccnc(OC(F)F)c4)cc13)C2` [Example 111, (3-(6-(2-(difluoromethoxy)pyridin-4-yl)pyrrolo[1,2-b]pyridazin-4-yl)-3,8-diazabicyclo[3.2.1]octan-8-yl)((1S,2R)-2-fluorocyclopropyl)methanone], the IC50 was 981 nM in assay [1], 57 nM in assay [2], 62 nM in assay [3] and 3.6 nM in assay [4].
On to `O=C([C@@H]1C[C@H]1F)N1C2CCC1CN(c1ccnn3cc(C4CC4)cc13)C2` [Example 24, (3-(6-cyclopropylpyrrolo[1,2-b]pyridazin-4-yl)-3,8-diazabicyclo[3.2.1]octan-8-yl)((1S,2R)-2-fluorocyclopropyl)methanone], for which the IC50 in assay [1] turned out to be 9080 nM; in assay [2], 5900 nM; in assay [3], 2740 nM; in assay [4], 164 nM.
As for `C[C@]1(F)C[C@@H](C(=O)N2C3CCC2CN(c2ncnn4cc(-c5cnn(C(F)F)c5)cc24)C3)C1` [Example 33, (3-(6-(1-(difluoromethyl)-1H-pyrazol-4-yl)pyrrolo[2,1-f][1,2,4]triazin-4-yl)-3,8-diazabicyclo[3.2.1]octan-8-yl)((1s,3s)-3-fluoro-3-methylcyclobutyl)methanone trifluoroacetate], the IC50 stood at 4430 nM in assay [1], 6140 nM in assay [2], 854 nM in assay [3] and 476 nM in assay [4].
As to `COc1cc(-c2cc3c(N4CC5CCC(C4)N5C(=O)[C@@H]4C[C@H]4F)ccnn3c2)ncn1` [Example 105, ((1S,2R)-2-fluorocyclopropyl)(3-(6-(6-methoxypyrimidin-4-yl)pyrrolo[1,2-b]pyridazin-4-yl)-3,8-diazabicyclo[3.2.1]octan-8-yl)methanone], the IC50 in assay [1] came out at 6900 nM; in assay [2], 190 nM; in assay [3], 356 nM; in assay [4] it was 28.6 nM.
For `O=C(C1CC1)N1C2CCC1CN(c1ncnn3cc(-c4cnn([C@@H]5CCOC5)c4)cc13)C2` [Example 156, cyclopropyl(3-(6-(1-((R)-tetrahydrofuran-3-yl)-1H-pyrazol-4-yl)pyrrolo[2,1-f][1,2,4]triazin-4-yl)-3,8-diazabicyclo[3.2.1]octan-8-yl)methanone], the IC50 in assay [1] was 3850 nM; in assay [2], 3860 nM; in assay [3], 1500 nM; in assay [4], 251 nM.
Regarding `Cc1cc(-c2cc3c(N4CC5CCC(C4)N5C(=O)C4CC4)ncnn3c2)on1` [Example 158, Cyclopropyl(3-(6-(3-methylisoxazol-5-yl)pyrrolo[2,1-f][1,2,4]triazin-4-yl)-3,8-diazabicyclo[3.2.1]octan-8-yl)methanone], the IC50 in assay [1] was 10000 nM; in assay [2] it was 10000 nM; in assay [3], 8060 nM; in assay [4], 656 nM.
For the compound `Cn1cc(-c2cc3c(N4CC5CCC(C4)N5C(=O)C4(F)CC4)ccnc3[nH]2)c(F)n1` [Example 243, (3-(2-(3-fluoro-1-methyl-1H-pyrazol-4-yl)-1H-pyrrolo[2,3-b]pyridin-4-yl)-3,8-diazabicyclo[3.2.1]octan-8-yl)(1-fluorocyclopropyl)methanone], the IC50 in assay [1] is 27 nM; in assay [2], 26 nM; in assay [3], 79 nM; in assay [4], 2.8 nM.
The matching figures for `O=C(C1CC1)N1C2CCC1CN(c1c(F)cnn3cc(-c4cnn(C(F)F)c4)cc13)C2` [Example 140, cyclopropyl(3-(6-(1-(difluoromethyl)-1H-pyrazol-4-yl)-3-fluoropyrrolo[1,2-b]pyridazin-4-yl)-3,8-diazabicyclo[3.2.1]octan-8-yl)methanone]: 738 nM, 1480 nM, 834 nM and 56 nM.
The matching figures for `O=C(C1C[C@H]1F)N1C2CCC1CN(c1ncnc3[nH]c(-c4cncc(F)c4)cc13)C2` (stereo partly drawn) [Example 229]: 10000 nM, 1740 nM, 1240 nM and 122 nM.
As for `O=C([C@H]1C[C@H]1F)N1C2CCC1CN(c1ncnn3cc(-c4cnn(C(F)F)c4)cc13)C2` (racemic) [Example 46, Rac-(3-(6-(1-(difluoromethyl)-1H-pyrazol-4-yl)pyrrolo[2,1-f][1,2,4]triazin-4-yl)-3,8-diazabicyclo[3.2.1]octan-8-yl)((1R,2R)-2-fluorocyclopropyl)methanone], the IC50 in assay [1] came out at 6110 nM; in assay [2] it was 9740 nM; in assay [3], 1230 nM; in assay [4] it was 668 nM.
Take `CCC(=O)N1C2CCC1CN(c1ncnn3cc(-c4cnn(C(F)F)c4)cc13)C2` [Example 41, 1-(3-(6-(1-(difluoromethyl)-1H-pyrazol-4-yl)pyrrolo[2,1-f][1,2,4]triazin-4-yl)-3,8-diazabicyclo[3.2.1]octan-8-yl)propan-1-one]: the IC50 in assay [1] stood at 8430 nM; in assay [2], 8760 nM; in assay [3] it was 2260 nM; in assay [4] it was 560 nM.
Consider `Cn1ncc(-c2cc3c(N4CC5CCC(C4)N5C(=O)[C@@H]4C[C@H]4F)ncnn3c2)c1F` [Example 97, (3-(6-(5-fluoro-1-methyl-1H-pyrazol-4-yl)pyrrolo[2,1-f][1,2,4]triazin-4-yl)-3,8-diazabicyclo[3.2.1]octan-8-yl)((1S,2R)-2-fluorocyclopropyl)methanone], for which the IC50 in assay [1] came to 4040 nM; in assay [2], 1380 nM; in assay [3], 1320 nM; in assay [4] it was 76.8 nM.
